Assay results taken from patent US9133154B2, “Substituted 3-phenylpropylamine derivatives for the treatment of ophthalmic diseases and disorders” (Acucela Inc., priority 2013, dated 2015).
“And” between values parts separate entries of the source, which are not always exact repeats. Equal values may be shown once. “Also recorded” adds a separate entry of the source. Read-outs that look alike come from different tables or passages of the source.

Tests used:
[1] = test system: accumulation of A2E in the eyes; assay: A2E accumulation model; assay type: in vivo, abca4−/−, RPE65 Leu450Leu mice; conditions: for Day 91 A2E Concentration, individual animals: 91 days, left eye, animals 1-8, listed as Test cmpd
Protocol: The purpose of this study was to assess the ability of test compounds to inhibit the accumulation of A2E in the eyes of abca4^−/−, RPE65 Leu450Leu mice (ABCR) following 91 days of continuous dosing.
The test compound (R)-3-amino-1-(3-((tetrahydro-2H-pyran-4-yl)methoxy)phenyl)-propan-1-ol (Example 1) was stored in a freezer set to maintain at approximately −20° C.
On the day prior to dosing and once weekly for 13 weeks the test articles were weighed into new empty glass scintillation vials. The compound was dissolved in ethanol (10% of final volume) and then diluted with deionized water (90% of total final volume) resulting in a concentrations of 0.2 mg/mL. This dosing solution was administered to the high dose groups (1 mg/kg). For the low dose groups (0.1 mg/kg) a […] dosing solution was prepared by diluting with vehicle (10% ethanol 90% water) to the appropriate concentration. The dosing solutions were stored in a refrigerator set to maintain between 2 to 8° C. and used for dose administration once per day for one week. The vehicle used for dosing control groups was 10% ethanol 90% deionized water.
Male and female abca4^−/−, and RPE65 Leu450Leu, mice (Charles River Laboratories) were used for this study. The mice were approximately 8-12 week old at the initiation of dosing with a starting average body weight of 19 grams for females and 27 grams for males.
Group 1 animals (Time zero for A2E accumulation) were euthanized with carbon dioxide followed by cervical dislocation on the first day of dosing. Immediately following the cervical dislocation both eyes of the animal was removed and transferred into separate tubes, flash frozen in liquid nitrogen and stored in the dark at −80° C. until processing and analysis.
The remaining groups (2-4) were dosed once each day for 13 weeks. When dosed each animal was administered a 5 mL/kg dose of the appropriate test compound or vehicle via oral gavage using a 1 mL syringe fitted with a 20 gauge oral gavage needle. Upon the completion of the study, animals were euthanized with carbon dioxide followed by cervical dislocation. Immediately following the cervical dislocation both eyes of the animal was removed and transferred into separate tubes, flash frozen in liquid nitrogen and stored in the dark at −80° C. until processing and analysis for A2E concentration.
(§1) All sample processing procedures were performed in the dark under red light.
Extracted samples were analyzed using an Agilent 1100 HPLC system according to the procedure outlined in Table 21 (See Below)
HPLC analysis of the eyes looks at the peak area units of the A2E present in the eyes following extraction as described above.
Data analysis % inhibition (drug vs. recovery control), % control (drug vs. light control), and One-way ANOVA (followed by Tukey's Multiple Comparison) were performed using peak area units and performed by Prism software. Data are represented as mean and standard deviation.

[2] = test system: regeneration of 11-cis-retinal; assay: Single dose time course in the in vivo isomerase assay at 0.3 mg/kg; set-up: species or system BALB/c mice; conditions: for activity at 0.3 mg/kg: Mus musculus, read-out: Percent Control (Avg. % Inhibition)
Protocol: (§2) All test compounds were stored at room temperature, dessicated.
The compounds were dissolved in di-water at the concentration of 0.068 mg/mL and stored overnight at 4° C.
52 Male BALB/c mice (Charles River Laboratories) were used for this study. The mice were approximately 8 weeks at the initiation of dosing with an average body weight of 23 grams.
The day prior to dose administration 52 BALB/c mice were placed into a dark room and dark adapted for a minimum of 12 hours prior to dose administration. The mice were maintained in the dark for the duration of the study.
(§3) Each animal was removed from its cage and dosed accordingly to the study design in Table 10 (see below). Each animal was administered 0.1 mL of the appropriate test article or vehicle orally using a 1 mL syringe fitted with a 23 gauge oral gavage needle. At 2, 4, 6, 8, 16 or 24 hours following dose administration, animals were removed from the dark and exposed to 5000 Lux white light for 10 minutes to photobleach their eyes. Following the completion of the photobleach the animals were returned to the dark for 2 hours to allow for the regeneration of 11-cis-retinal in the eyes. Two hours after photobleaching each animal was euthanized with carbon dioxide followed by cervical dislocation, in the dark under red light. The light control group was euthanized immediately following photobleaching. Immediately following the cervical dislocation both eyes of each animal were removed and transferred into separate tubes, flash frozen in liquid nitrogen and stored in the dark at −80° C. until processing and analysis.
as §1
Extracted samples were analyzed using an Agilent 1100 HPLC system according to the procedure outlined in Table 12 (see below)
(§4) HPLC analysis of the eyes measures the peak area units of the 110cis-Ral-Oxime_syn. Signal.
(§5) Data analysis % inhibition (drug vs. recovery control). % control (drug vs. light control), and One-way ANOVA (followed by Tukey's Multiple Comparison) were performed using peak area units and performed by Prism software. Data are represented as mean and standard deviation.

[3] = test system: retinal isomerase activity (recovery of 11-cis-retinal); assay: Comparative in vivo murine isomerase assay, dose response; set-up: species or system BALB/c mice; conditions: for Avg. % Inhibition: 11-cis-retinal, drug vs. recovery control, listed as cmpd A
Protocol: as §2
On the day prior to dose administration compound A and compound D were weighed into new empty glass vials. The compounds were dissolved in di-water at the concentration of 0.833 mg/mL compound A and 0.892 mg/mL compound D, serially diluted into various concentrations, and stored overnight at 4° C.
56 Male BALB/c mice (Charles River Laboratories) were used for this study. The mice were approximately 8 weeks at the initiation of dosing with an average body weight of 24 grams.
The day prior to dose administration 56 BALB/c mice were placed into a dark room and dark adapted for a minimum of 12 hours prior to dose administration. The mice were maintained in the dark for the duration of the study.
as §3, with “Table 4” for “Table 10”, “appropriate compound” for “appropriate test article”, “vehicle via oral gavage” for “vehicle orally”, “needle. Two” for “needle. At 2, 4, 6, 8, 16 or 24”
as §1
Extracted samples were analyzed using an Agilent 1100 HPLC system according to the procedure outlined in Table 6 (see below)
as §4, §5

[4] = BALB/c mice, single oral dose, 2 hours

`NCC[C@@H](O)c1cccc(OCC2CCOCC2)c1` [Example 1] was tested, and the “Day 91 A2E Concentration, individual animals” value ([1]; 0.1 mg/kg oral once daily) was 9.64 Pico Moles/eye and 8.97 Pico Moles/eye and 10.23 Pico Moles/eye and 8.42 Pico Moles/eye and 8.49 Pico Moles/eye and 9.6 Pico Moles/eye and 11.68 Pico Moles/eye and 10.27 Pico Moles/eye, the “Day 91 A2E Concentration, individual animals” value ([1]; 1.0 mg/kg oral once daily) was 6.49 Pico Moles/eye and 7.68 Pico Moles/eye and 7.75 Pico Moles/eye and 8.87 Pico Moles/eye and 7.56 Pico Moles/eye and 8.01 Pico Moles/eye and 8.86 Pico Moles/eye and 9.49 Pico Moles/eye and the “effect on the accumulation of A2E” value ([1]; 91 days of oral dosing at 0.1 mg/kg and 1.0 mg/kg) was “statistically significant inhibitory effects on the accumulation of A2E”. For the same molecule, the inhibition at 0.1 mg/kg ([1]; Mus musculus, 2184 h, 0.1 mg/kg daily oral administration for 91 days) was 46.4%, the inhibition at 1 mg/kg ([1]; Mus musculus, 2184 h, 1 mg/kg daily oral administration for 91 days) was 65% and the “significance of inhibitory effect on the recovery of 11-cis-retinal vs. recovery control” value ([2]; BALB/c mice, single oral 0.3 mg/kg, 2, 4, 6, 8, 16 and 24 hours, listed as compound A, 0.3 mg/kg) was “statistically significant difference, P<0.001, from the recovery control group for the 2, 4 and 6 hour time points; also recorded: not a statistically significant difference, P>0.05 for the 8, 16 and 24 time points; also recorded: significant inhibitory effect at 2, 4 and 6 hours; also recorded: no significant effect on the recovery of 11-cis-retinal at the 8, 16 and 24 hour time points; also recorded: statistically significant from the control group at the 2, 4, and 6 hour time points”. It also gave an activity at 0.3 mg/kg ([2]; BALB/c mice, single oral 0.3 mg/kg, time point 2 hours) of 2%, an activity at 0.3 mg/kg ([2]; BALB/c mice, single oral 0.3 mg/kg, time point 4 hours) of 11.5% and an activity at 0.3 mg/kg ([2]; BALB/c mice, single oral 0.3 mg/kg, time point 6 hours) of 43.7%. It also gave an activity at 0.3 mg/kg ([2]; BALB/c mice, single oral 0.3 mg/kg, time point 8 hours) of 79.8%, an activity at 0.3 mg/kg ([2]; BALB/c mice, single oral 0.3 mg/kg, time point 16 hours) of 98.5% and an activity at 0.3 mg/kg ([2]; BALB/c mice, single oral 0.3 mg/kg, time point 24 hours) of 95.8%. For the same molecule, the “times more active than compound D” value ([2]; time course experiment, 0.3 mg/kg) was “greater than 10 ×”, the “Avg. % Inhibition” value ([3]; BALB/c mice, oral 0.3 mg/kg, 2 hours, 0.3 mg/kg) was 92.4% and the “Avg. % Inhibition” value ([3]; BALB/c mice, oral 0.5 mg/kg, 2 hours, 0.5 mg/kg) was 99.3%. For the same molecule, the “significance of inhibitory effect on the recovery of 11-cis-retinal vs. recovery control” value ([3]; BALB/c mice, single oral dose 0.03-3 mg/kg, 2 hours, listed as compound A) was “statistically significant difference, P<0.001 for 0.3, 0.5, 1 and 3 mg/kg dose levels; also recorded: significant inhibitory effect at 0.3 mg/kg, 0.5 mg/kg, 1 mg/kg and 3 mg/kg dose levels”, the “IC50 (dose response experiment)” value [3, 4] was 0.17 mg/kg and the “dose at which 11-cis-retinal recovery was inhibited by 50%” value [3, 4] was 0.17 mg/kg. For the same molecule, the “times more active than compound D” value ([3]; by IC50 of the dose response experiment) was 3-4 ×, the “times more active than compound D” value ([3]; by dose showing nearly 100% inhibition (0.5 vs 3.0 mg/kg)) was “approximately 6 ×” and the “times more active than compound D” value ([3]; by inhibition at a dose of 0.3 mg/kg) was “greater than 10 ×”.
